Numbers after ± are expanded uncertainties.
Assay: activity coefficient (dimensionless); of the first substance listed, at infinite dilution; xn = mol fraction of the nth substance listed
Settings: 101 kPa, Liquid, Chromatography, x1 = 0

Structure (SMILES)	activity coefficient (318.15 K)	activity coefficient (328.15 K)	activity coefficient (338.15 K)	activity coefficient (348.15 K)	activity coefficient (358.15 K)	activity coefficient (368.15 K)
C#CCCCC [1-hexyne] + COCC[N+]1(C)CCCCC1.O=S(=O)([N-]S(=O)(=O)C(F)(F)F)C(F)(F)F	2.98 ± 0.2	2.99 ± 0.2	3 ± 0.2	3.01 ± 0.2	3.02 ± 0.21	3.03 ± 0.21
Cc1ccccc1C [1,2-dimethylbenzene] + COCC[N+]1(C)CCCCC1.O=S(=O)([N-]S(=O)(=O)C(F)(F)F)C(F)(F)F	1.66 ± 0.11	1.68 ± 0.11	1.69 ± 0.11	1.71 ± 0.11	1.72 ± 0.12	1.73 ± 0.12
CCCCCCCCC [nonane] + COCC[N+]1(C)CCCCC1.O=S(=O)([N-]S(=O)(=O)C(F)(F)F)C(F)(F)F	50.8 ± 2.4	46.3 ± 2.2	42 ± 2	38.2 ± 1.8	35.1 ± 1.6	32.4 ± 1.5
C=CCCCCCC [oct-1-ene] + COCC[N+]1(C)CCCCC1.O=S(=O)([N-]S(=O)(=O)C(F)(F)F)C(F)(F)F	18.1 ± 1.2	17 ± 1.2	16.1 ± 1.1	15.1 ± 1	14.4 ± 1	13.8 ± 0.9
C#CCCCCC [1-heptyne] + COCC[N+]1(C)CCCCC1.O=S(=O)([N-]S(=O)(=O)C(F)(F)F)C(F)(F)F	4.22 ± 0.29	4.21 ± 0.29	4.19 ± 0.29	4.17 ± 0.28	4.15 ± 0.28	4.15 ± 0.28
CC(C)CO [2-methyl-1-propanol] + COCC[N+]1(C)CCCCC1.O=S(=O)([N-]S(=O)(=O)C(F)(F)F)C(F)(F)F	2.61 ± 0.18	2.34 ± 0.16	2.12 ± 0.14	1.92 ± 0.13	1.75 ± 0.12	1.62 ± 0.11
CCOC(C)=O [ethyl acetate] + COCC[N+]1(C)CCCCC1.O=S(=O)([N-]S(=O)(=O)C(F)(F)F)C(F)(F)F	0.916 ± 0.058	0.932 ± 0.059	0.948 ± 0.06	0.963 ± 0.061	0.975 ± 0.061	0.989 ± 0.062
CC(C)(C)O [2-methylpropan-2-ol] + COCC[N+]1(C)CCCCC1.O=S(=O)([N-]S(=O)(=O)C(F)(F)F)C(F)(F)F	1.87 ± 0.13	1.73 ± 0.12	1.61 ± 0.11	1.5 ± 0.1	1.42 ± 0.09	1.34 ± 0.09
c1ccsc1 [thiophene] + COCC[N+]1(C)CCCCC1.O=S(=O)([N-]S(=O)(=O)C(F)(F)F)C(F)(F)F	0.787 ± 0.051	0.798 ± 0.052	0.808 ± 0.052	0.819 ± 0.053	0.829 ± 0.053	0.839 ± 0.054
C1CCCCC1 [cyclohexane] + COCC[N+]1(C)CCCCC1.O=S(=O)([N-]S(=O)(=O)C(F)(F)F)C(F)(F)F	9.72 ± 0.45	9.23 ± 0.42	8.71 ± 0.4	8.24 ± 0.38	7.81 ± 0.36	7.48 ± 0.34
Cc1ccc(C)cc1 [1,4-dimethylbenzene] + COCC[N+]1(C)CCCCC1.O=S(=O)([N-]S(=O)(=O)C(F)(F)F)C(F)(F)F	1.08 ± 0.07	1.1 ± 0.07	1.13 ± 0.07	1.14 ± 0.07	1.16 ± 0.07	1.19 ± 0.08
C1=CCCCC1 [cyclohexene] + COCC[N+]1(C)CCCCC1.O=S(=O)([N-]S(=O)(=O)C(F)(F)F)C(F)(F)F	5.41 ± 0.37	5.21 ± 0.36	5 ± 0.34	4.83 ± 0.33	4.67 ± 0.32	4.53 ± 0.31
CCOCC [diethyl ether] + COCC[N+]1(C)CCCCC1.O=S(=O)([N-]S(=O)(=O)C(F)(F)F)C(F)(F)F	2.6 ± 0.18	2.59 ± 0.18	2.58 ± 0.18	2.58 ± 0.18	2.57 ± 0.17	2.56 ± 0.17
